Results published in patent US8999956B2, “N-[(het)arylalkyl)] pyrazole(thio)carboxamides and their heterosubstituted analogues” (Bayer Intellectual Property GmbH, priority 2010, dated 2015).
Where two headings read alike, the source gives them in different places.

Experiments:
Sphaerotheca fuliginea = test: In vivo preventive test on Sphaerotheca fuliginea (cucumber); conditions: 500 ppm of active ingredient, evaluated 7 days after inoculation
Outline: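 Young cucumber plants sprayed with compound (in DMF with alkylarylpolyglycolether emulsifier, diluted in water) at the stated application rate. Inoculated one day later with aqueous Sphaerotheca fuliginea spore suspension. Plants then held in greenhouse at approximately 23° C and approximately 70% relative humidity.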

Alternaria solani = test: In vivo preventive test on Alternaria solani (tomato); conditions: 500 ppm of active ingredient, evaluated 7 days after inoculation
Outline: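 Young tomato plants sprayed preventively with compound in DMF/alkylarylpolyglycolether emulsion diluted in water to the stated rate. Inoculation with aqueous Alternaria solani spore suspension one day after treatment.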

Pyrenophora teres = test: In vivo preventive test on Pyrenophora teres (barley); conditions: 500 ppm of active ingredient, evaluated 7-9 days after inoculation
Outline: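 Compound formulated in N,N-dimethylformamide with alkylaryl polyglycol ether emulsifier and diluted in water, then sprayed on young barley plants at the stated application rate. Plants inoculated one day later with aqueous Pyrenophora teres spore suspension, testing preventive protection.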

Septoria tritici = test: In vivo preventive test on Septoria tritici (wheat); conditions: 500 ppm of active ingredient, evaluated 21 days after inoculation
Description: (§1) Solvent: 49 parts by weight of N,N-dimethylacetamide Emulsifier: 1 part by weight of alkylaryl polyglycol ether To produce a suitable preparation of active compound, 1 part by weight of active compound or active compound combination is mixed with the stated amounts of solvent and emulsifier, and the concentrate is diluted with water to the desired concentration. To test for preventive activity, young plants are sprayed with the preparation of active compound or active compound combination at the stated rate of application. After the spray coating has been dried, the plants are sprayed with a spore suspension of Septoria tritici.

[1] = test system: Blumeria graminis fsp. hordei; test: In vivo preventive test on Blumeria graminis (barley); conditions: 500 ppm of active ingredient, evaluated 7 days after inoculation
Description: Solvent: 49 parts by weight of N,N-dimethylacetamide Emulsifier: 1 part by weight of alkylaryl polyglycol ether To produce a suitable preparation of active compound, 1 part by weight of active compound or active compound combination is mixed with the stated amounts of solvent and emulsifier, and the concentrate is diluted with water to the desired concentration. To test for preventive activity, young plants are sprayed with the preparation of active compound or active compound combination at the stated rate of application. After the spray coating has been dried, the plants are dusted with spores of Blumeria graminis fsp. hordei.

[2] = test system: Fusarium nivale (var. majus); test: In vivo preventive test on Fusarium nivale (wheat); conditions: 500 ppm of active ingredient, evaluated 5 days after inoculation
Description: Solvent: 49 parts by weight of N,N-dimethylacetamide Emulsifier: 1 part by weight of alkylaryl polyglycol ether To produce a suitable preparation of active compound, 1 part by weight of active compound or active compound combination is mixed with the stated amounts of solvent and emulsifier, and the concentrate is diluted with water to the desired concentration. To test for preventive activity, young plants are sprayed with the preparation of active compound or active compound combination at the stated rate of application. After the spray coating has been dried, the plants are slightly injured by using a sandblast and afterwards they are sprayed with a conidia suspension of Fusarium nivale (var. majus).

Leptosphaeria nodorum = test: In vivo preventive test on Leptosphaeria nodorum (wheat); conditions: 500 ppm of active ingredient, evaluated 7-9 days after inoculation
Outline: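 Compound formulated in N,N-dimethylacetamide with alkylaryl polyglycol ether emulsifier and diluted with water. Young wheat plants were sprayed at the stated application rate, then inoculated one day later with an aqueous spore suspension of L. nodorum.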

Puccinia triticina = test: In vivo preventive test on Puccinia triticina (wheat); conditions: Table K, 500 ppm of active ingredient, evaluated 8 days after inoculation
Botrytis cinerea = test: In vivo preventive test on Botrytis cinerea (beans); conditions: Table L, 500 ppm of active ingredient, lesion size 2 days after inoculation
Description: Solvent: 24.5 parts by weight of acetone • 24.5 parts by weight of N,N-dimethylacetamide
Emulsifier: 1 part by weight of alkylaryl polyglycol ether
To produce a suitable preparation of active compound, 1 part by weight of active compound is mixed with the stated amounts of solvent and emulsifier, and the concentrate is diluted with water to the desired concentration.
To test for preventive activity, young plants are sprayed with the preparation of active compound. After the spray coating has dried on, 2 small pieces of agar covered with growth of Botrytis cinerea are placed on each leaf. The inoculated plants are placed in a darkened chamber at 20° C. and a relative atmospheric humidity of 100%.
2 days after the inoculation, the size of the lesions on the leaves is evaluated. 0% means an efficacy which corresponds to that of the untreated control, while an efficacy of 100% means that no disease is observed.

[3] = test system: aflatoxines produced by Aspergillus parasiticus; test: microbe, parasite or virus in culture; format: cell-based
Aspergillus parasiticus = test: microbe, parasite or virus in culture; format: cell-based
[4] = log P by HPLC on reversed-phase column (EEC Directive 79/831 Annex V.A8); format: physicochemical
Description: In table 1, the log P values were determined in accordance with EEC Directive 79/831 Annex V.A8 by HPLC (High Performance Liquid Chromatography) on a reversed-phase column (C18), using the method described below: Temperature: 40° C.; […]

Venturia inaequalis = test: In vivo preventive test on Venturia inaequalis (apple scab); conditions: 100 ppm of active ingredient, evaluated 10 days after inoculation
Description: as §1, with “24.5 parts by weight of acetone • 24.5” for “49”, “compound” for “compound or active compound combination”, “application.” for “application. After the spray coating has been dried, the plants are sprayed with a spore suspension of Septoria tritici.”

Uromyces appendiculatus = test: In vivo preventive test on Uromyces appendiculatus (beans); conditions: 100 ppm of active ingredient, evaluated 10 days after inoculation
Description: as §1, with “24.5 parts by weight of acetone • 24.5” for “49”, “compound” for “compound or active compound combination”, “application.” for “application. After the spray coating has been dried, the plants are sprayed with a spore suspension of Septoria tritici.”

Row | SMILES | Efficacy (Sphaerotheca fuliginea) | Efficacy (Alternaria solani) | Efficacy (Pyrenophora teres) | Efficacy (Septoria tritici) | Efficacy [1] | Efficacy [2] | Efficacy (Leptosphaeria nodorum) | Efficacy (Puccinia triticina) | % Inhibition of Aflatoxin at 50 μM [3] | logP [4] | Efficacy (Venturia inaequalis) | Efficacy (Uromyces appendiculatus) | further results
1 | CC(CCc1c(Cl)cc(Cl)cc1Cl)N(C(=O)c1c(C(F)F)nn(C)c1F)C1CC1 (stereo not shown) [Example 213] | 99% | 100% | 100% | 93% | 100% | 93% | 95% | 90% | 100% | 5.14 |  |  | Efficacy (Botrytis cinerea): 86%; % Inhibition of fungal growth at 50 μM (Aspergillus parasiticus): 100%
2 | CC(C)CC(C)C1CCCC1NC(=O)c1c(C(F)F)nn(C)c1F (single isomer, unassigned) [Example 316] | 98% | 90% | 100% |  |  |  | 80% | 100% | 100% | 4.19 isomer A | 100% | 100% | % Inhibition of fungal growth at 50 μM (Aspergillus parasiticus; 50 µM): 100%
3 | Cn1nc(C(F)F)c(C(=O)NCC2CCCC(C(F)(F)F)C2)c1Cl (mixture of isomers) [Example 378] |  | 100% | 100% |  |  |  |  |  |  |  | 100% | 100% | Efficacy (Botrytis cinerea): 96%
4 | CCCCC1CCCCC1NC(=O)c1c(C(F)F)nn(C)c1Cl (stereo not shown) [Example 331] | 100% | 100% | 95% | 100% | 100% | 100% |  | 90% | 99% | 4.10 | 100% | 100% | % Inhibition of fungal growth at 50 μM (Aspergillus parasiticus): 79%
5 | CCCC1CCCCC1NC(=O)c1c(C(F)F)nn(C)c1F (single isomer, unassigned) [Example 343] |  | 95% | 100% | 100% | 94% | 100% |  | 70% | 100% | 3.42 isomer A | 97% |  | % Inhibition of fungal growth at 50 μM (Aspergillus parasiticus; 50 µM): 87%
6 | CC(N(C(=O)c1c(C(F)F)nn(C)c1F)C1CC1)C(C)(C)Cc1ccc(Cl)cc1Cl (stereo not shown) [Example 181] | 100% | 100% | 100% | 100% | 100% |  | 95% |  |  | 5.14 | 100% | 78% | 
7 | Cn1nc(C(F)F)c(C(=O)NC2CCCCC2CCC(C)(C)C)c1Cl (single isomer, unassigned) [Example 354] |  |  |  |  | 100% | 100% |  | 100% |  | 4.73 isomer A | 100% | 100% | 
8 | CON(C(=O)c1c(C(F)F)nn(C)c1Cl)C(C)CCc1c(Cl)cc(Cl)cc1Cl (stereo not shown) [Example 218] |  | 90% | 100% | 86% |  | 100% |  |  |  | 4.89 | 100% | 95% | 
9 | Cn1nc(C(F)F)c(C(=O)NC2CCCCC2CCC(C)(C)C)c1Cl (single isomer, unassigned) [Example 355] |  |  |  |  | 80% | 100% |  |  |  | 4.95 isomer B | 99% | 100% | 
10 | CCCCCCC1CCCCC1NC(=O)c1c(C(F)F)nn(C)c1F (stereo not shown) [Example 326] |  |  |  | 78% |  | 92% |  | 100% |  | 5.07 |  |  | 
11 | Cn1nc(C(F)F)c(C(=O)NC2CCCC2CCC(C)(C)C)c1F (stereo not shown) [Example 319, 3-(difluoromethyl)-N-[2-(3,3-dimethylbutyl)cyclopentyl]-5-fluoro-1-methyl-1H-pyrazole-4-carboxamide] | 100% | 100% | 100% | 100% | 100% | 100% |  |  |  |  |  |  | pest or weed control at 500 ppm (Puccinia triticina; Puccinia triticina, 192 h, read-out: Efficacy): 80%; Efficacy (Botrytis cinerea): 73%; inhibition at 50 µM ([3]; Aspergillus parasiticus, 168 h, read-out: % Inhibition of Aflatoxin at 50 μM): 100%; inhibition at 50 µM (Aspergillus parasiticus; Aspergillus parasiticus, 168 h, read-out: % Inhibition of fungal growth at 50 μM): 89%; chromatographic logP ([4]; log P (isomer A)): 4.22; chromatographic logP ([4]; log P (isomer B)): 4.28; chromatographic logP ([4]; logP): 4.22
12 | CC(C)CC(C)C1CCCC1NC(=O)c1c(C(F)F)nn(C)c1Cl (single isomer, unassigned) [Example 314] | 90% | 95% | 100% |  |  |  | 80% |  |  | 4.47 isomer C | 98% | 85% | 
13 | CC(C)CC(C)C1CCCCC1NC(=O)c1c(C(F)F)nn(C)c1F (single isomer, unassigned) [Example 337] | 100% | 100% | 100% | 78% |  |  |  | 70% |  | 4.47 isomer A | 74% | 86% | Efficacy (Botrytis cinerea): 93%
14 | CC(CC(C)(C)C)C1CCCCC1NC(=O)c1c(C(F)F)nn(C)c1Cl (stereo not shown) [Example 359] | 100% | 95% | 100% | 100% | 94% | 100% |  | 100% | 100% | 5.28 | 99% | 100% | % Inhibition of fungal growth at 50 μM (Aspergillus parasiticus): 90%
15 | CC(C)CC(C)C1CCCC1NC(=O)c1c(C(F)F)nn(C)c1Cl (single isomer, unassigned) [Example 312] | 90% | 95% | 100% |  |  |  | 95% | 100% |  | 4.40 isomer A | 99% | 100% | % Inhibition of Aflatoxin at 50 μM ([3]; 50 µM): 100%; % Inhibition of fungal growth at 50 μM (Aspergillus parasiticus; 50 µM): 99%
16 | CC(C)CC(C)C1CCCCC1NC(=O)c1c(C(F)F)nn(C)c1Cl (single isomer, unassigned) [Example 335] |  |  |  |  | 70% | 86% |  | 100% | 100% | 4.96 isomer B | 100% | 100% | % Inhibition of fungal growth at 50 μM (Aspergillus parasiticus; 50 µM): 84%
